Measured values reported in the supplement of paper PMC10307832.

Tests used:
Experiment in all cases: relative viability (nuclei count vs DMSO), 5 days (fraction); higher = more cells survive
[1] = compound: C1CSC2=C(C(=O)N1)SC3=C2C=C(C=C3)O [kb NB 142-70]
How it was run: (§1)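 Vehicle-anchored 1536-well plates of lung cancer cell lines, held overnight at 37 °C, were pinned with five library-drug doses (not always all listed) spaced by √10. No medium change followed over the next 5 days, after which the cells were fixed, permeabilised and Hoechst-stained together and imaged at 4×. Nuclei were counted with MetaXpress, and viability is treated-well nuclei over vehicle-well nuclei, taken as a median across plates. Plates passed with control CV below 25% and at least one doubling.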

[2] = compound: NCC(=O)Nc1ccc(-n2nc(C(F)(F)F)cc2-c2ccc3c(ccc4ccccc43)c2)cc1
How it was run: as §1

[3] = compound: C1CSC2=C(C(=O)N1)SC3=C2C=C(C=C3)O [kb NB 142-70] + Nc1nc2[nH]cc(CCc3ccc(C(=O)N[C@@H](CCC(=O)O)C(=O)O)cc3)c2c(=O)[nH]1 [Pemetrexed] (partner 0.2 µM)
How it was run: (§2)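 Dosing by pin tool came one day after lung cancer cell lines were seeded in 1536-well plates, using either one drug or a fixed anchor-drug dose plus five library-drug doses (not always all listed) in √10 steps. After 5 days, nuclei were counted on 4× images. Relative viability is treated-well nuclei count divided by vehicle-well nuclei count, and values are medians of duplicate plates.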

[4] = compound: C1CSC2=C(C(=O)N1)SC3=C2C=C(C=C3)O [kb NB 142-70] + Cc1nc(NC(=O)N2CCC[C@H]2C(N)=O)sc1-c1ccnc(C(C)(C)C(F)(F)F)c1 [Alpelisib] (partner 2 µM)
How it was run: as §2

[5] = compound: NCC(=O)Nc1ccc(-n2nc(C(F)(F)F)cc2-c2ccc3c(ccc4ccccc43)c2)cc1 + CC(C)C[C@H](NC(=O)[C@H](Cc1ccccc1)NC(=O)c1cnccn1)B(O)O [Bortezomib] (partner 0.002 µM)
How it was run: as §2

Row | Cell Line | relative viability ([1]; 0.1 µM) | relative viability ([1]; 1 µM) | relative viability ([1]; 3.162 µM) | relative viability ([2]; 0.02 µM) | relative viability ([2]; 0.06325 µM) | relative viability ([2]; 0.2 µM) | relative viability ([2]; 0.6325 µM) | relative viability ([2]; 2 µM) | relative viability ([3]; first compound 0.1 µM) | relative viability ([3]; first compound 1 µM) | relative viability ([3]; first compound 3.162 µM) | relative viability ([4]; first compound 0.1 µM) | relative viability ([4]; first compound 1 µM) | relative viability ([4]; first compound 3.162 µM) | relative viability ([5]; first compound 0.02 µM) | relative viability ([5]; first compound 0.06325 µM) | relative viability ([5]; first compound 0.2 µM) | relative viability ([5]; first compound 0.6325 µM) | relative viability ([5]; first compound 2 µM)
1 | NCI-H1623 | 0.98 | 1.01 | 0.951 | 1.05 | 1.02 | 0.943 | 0.923 | 1.01 |  |  |  |  |  |  |  |  |  |  | 
2 | NCI-H1944 | 1.08 | 0.978 | 1.07 | 0.822 | 0.973 | 0.966 | 0.965 | 0.899 | 0.633 | 0.757 | 0.665 | 0.874 | 0.817 | 0.853 |  |  |  |  | 
3 | NCI-H1703 | 0.959 | 0.973 | 1.23 | 1.01 | 0.816 | 0.972 | 0.889 | 0.812 |  |  |  | 0.391 | 0.362 | 0.444 | 0.278 | 0.237 | 0.307 | 0.215 | 0.344
4 | Calu-6 | 1.04 | 0.996 | 0.614 | 0.962 | 1.05 | 1.03 | 1 | 0.977 |  |  |  | 0.984 | 0.867 | 0.478 | 0.998 | 1.2 | 1.06 | 0.972 | 1.04
5 | EBC-1 | 1.01 | 1 | 0.643 | 1.01 | 1.03 | 1.07 | 1.02 | 1.01 |  |  |  | 0.864 | 0.798 | 0.491 | 0.533 | 0.556 | 0.738 | 0.52 | 0.589
6 | NCI-H358 | 0.943 | 0.725 | 0.137 | 0.965 | 0.993 | 0.925 | 0.939 | 0.94 | 0.175 | 0.141 | 0.114 | 0.885 | 0.578 | 0.131 |  |  |  |  | 
7 | IA-LM | 0.818 | 1.05 | 1.06 | 1.01 | 1.03 | 1.02 | 1.08 | 0.996 |  |  |  | 0.795 | 0.759 | 0.756 | 0.775 | 0.721 | 0.802 | 0.814 | 0.813
8 | NCI-H1793 | 0.911 | 1.11 | 0.863 | 0.984 | 1.08 | 0.86 | 0.915 | 1.08 | 0.73 | 0.902 | 0.609 | 0.589 | 0.711 | 0.636 |  |  |  |  | 
9 | ChaGo-K-1 | 1.06 | 1.05 | 0.946 | 0.98 | 0.994 | 0.941 | 0.971 | 1.03 | 0.261 | 0.26 | 0.257 |  |  |  | 0.979 | 1.02 | 0.81 | 1.04 | 1.12
10 | NCI-H2342 | 0.897 | 0.972 | 0.912 | 0.93 | 1.01 | 0.988 | 0.986 | 0.911 | 0.781 | 0.774 | 0.697 |  |  |  |  |  |  |  | 
11 | NCI-H1299 | 0.977 | 1.06 | 1.1 | 0.993 | 0.982 | 1.02 | 0.992 | 1 |  |  |  | 1.02 | 1.11 | 1.17 | 0.992 | 1.03 | 1.1 | 0.972 | 1.04
12 | NCI-H1650 | 0.988 | 1.02 | 0.849 | 0.913 | 0.995 | 0.847 | 0.971 | 1.09 | 0.315 | 0.419 | 0.481 |  |  |  | 0.235 | 0.215 | 0.188 | 0.191 | 0.195
13 | SW 900 | 0.864 | 1.02 | 0.744 | 0.717 | 0.941 | 0.856 | 0.784 | 0.814 | 0.451 | 0.523 | 0.468 |  |  |  |  |  |  |  | 
14 | NCI-H727 | 1.09 | 1.13 | 1.02 | 0.858 | 1.16 | 1.02 | 0.922 | 1.09 |  |  |  | 0.65 | 0.72 | 0.495 | 0.849 | 0.977 | 0.724 | 0.847 | 1.04
15 | SK-MES-1 | 1.01 | 1.13 | 0.734 | 1.04 | 1.01 | 1.06 | 1.01 | 1.03 | 1 | 1.11 | 0.548 | 0.932 | 0.922 | 0.833 |  |  |  |  | 
16 | NCI-H1648 | 0.789 | 0.925 | 0.748 | 0.751 | 0.939 | 0.9 | 0.989 | 1.11 | 0.731 | 0.763 | 0.932 |  |  |  |  |  |  |  | 
17 | NCI-H522 | 1.04 | 0.784 | 0.635 | 0.886 | 0.978 | 0.922 | 0.96 | 0.925 | 1.03 | 0.871 | 0.745 |  |  |  |  |  |  |  | 
18 | LK-2 | 1.01 | 0.855 | 0.685 | 0.923 | 1.05 | 0.935 | 1.06 | 0.909 | 0.327 | 0.215 | 0.224 | 1.1 | 0.72 | 0.438 |  |  |  |  | 
19 | NCI-H1395 | 1.01 | 0.963 | 0.601 | 0.941 | 0.983 | 0.755 | 0.858 | 1 | 0.915 | 0.872 | 0.833 | 1.29 | 1.15 | 0.66 |  |  |  |  | 
20 | A549 | 0.96 | 0.957 | 0.689 | 1.03 | 0.987 | 1.01 | 0.949 | 0.915 |  |  |  | 0.714 | 0.654 | 0.14 |  |  |  |  | 
21 | ABC-1 | 0.984 | 0.985 | 0.494 | 0.914 | 0.926 |  | 0.996 | 0.86 |  |  |  | 1.16 | 0.932 | 0.796 | 0.306 | 0.321 |  | 0.226 | 0.267
